Reference: patent publication US10597388B2, “Pyridazinone herbicides” (FMC CORPORATION, priority 2014, dated 2020)

What was measured:
Assay in all cases: Test D controlled growth environment herbicide test, pre- and postemergence
Format in all cases: in vivo
[1] = test system: foxtail, green (green foxtail, Setaria viridis)
Outline: (§1)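 Rating is visual, 0–100 scale (100 = complete control), made against untreated plants 14–21 d after treatment in controlled growth conditions. Postemergence sprays went onto 1- to 4-leaf plants in peat medium; preemergence sprays onto silt loam after sowing; formulation included a surfactant.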

[2] = test system: chickweed (common chickweed, Stellaria media)
Outline: as §1

[3] = test system: blackgrass (Alopecurus myosuroides)
Outline: as §1

[4] = test system: oat, wild (wild oat, Avena fatua)
Outline: as §1

[5] = test system: bromegrass, downy (downy bromegrass, Bromus tectorum)
Outline: as §1

[6] = test system: wheat, winter (winter wheat, Triticum aestivum)
Outline: as §1

[7] = test system: speedwell (bird's-eye speedwell, Veronica persica)
Outline: as §1

[8] = test system: wheat, spring (spring wheat, Triticum aestivum)
Outline: as §1

[9] = test system: deadnettle (henbit deadnettle, Lamium amplexicaule)
Outline: as §1

[10] = test system: oilseed rape (Brassica napus)
Outline: as §1

[11] = test system: mustard, wild (wild mustard, Sinapis arvensis)
Outline: as §1

[12] = test system: ryegrass, Italian (Italian ryegrass, Lolium multiflorum)
Outline: as §1

[13] = test system: Russian thistle (Salsola kali)
Outline: as §1

[14] = Postemergence, 31 g ai/ha, scale 0 to 100 (0 no effect, 100 complete control)
[15] = Postemergence, 125 g ai/ha, visual rating on scale 0 (no effect) to 100 (complete control), 14 to 21 d
[16] = Postemergence, 250 g ai/ha, scale 0 to 100 (0 no effect, 100 complete control)
[17] = Preemergence, 62 g ai/ha, scale 0 to 100 (0 no effect, 100 complete control)
[18] = Preemergence, 125 g ai/ha, scale 0 to 100 (0 no effect, 100 complete control)
[19] = Preemergence, 250 g ai/ha, scale 0 to 100, 0 no effect, 100 complete control
[20] = postemergence, 62 g ai/ha, scale 0 to 100, 0 no effect, 100 complete control

Cn1nc(Br)c(O)c(-c2cccc3ccccc23)c1=O [Compound 20]
Foxtail, Green plant response rating [1, 14]: 15
Plant response rating, Foxtail, Green [1, 15]: 40
Plant response rating, Foxtail, Green [1, 16]: 70
Plant response rating (scale of 0 to 100), Foxtail, Green ([1]; Preemergence, 31 g ai/ha): 25
Plant response rating, Foxtail, Green [1, 17]: 60
Plant response rating, Foxtail, Green [1, 18]: 75
Plant response rating, Foxtail, Green [1, 19]: 85
Plant response rating, Foxtail, Green [1, 20]: 35
Chickweed plant response rating [2, 14]: 90
Plant response rating, Chickweed [2, 15]: 100
Plant response rating, Chickweed [2, 16]: 100
Plant response rating (scale of 0 to 100), Chickweed ([2]; Preemergence, 31 g ai/ha): 85
Plant response rating, Chickweed [2, 17]: 95
Plant response rating, Chickweed [2, 18]: 95
Plant response rating, Chickweed [2, 19]: 95
Plant response rating, Chickweed [2, 20]: 100
Blackgrass plant response rating [3, 14]: 15
Plant response rating, Blackgrass [3, 15]: 50
Plant response rating, Blackgrass [3, 16]: 60
Plant response rating (scale of 0 to 100), Blackgrass ([3]; Preemergence, 31 g ai/ha): 20
Plant response rating, Blackgrass [3, 17]: 40
Plant response rating, Blackgrass [3, 18]: 60
Blackgrass plant response rating [3, 19]: 75
Plant response rating, Blackgrass [3, 20]: 40
Oat, Wild plant response rating [4, 14]: 20
Plant response rating, Oat, Wild [4, 15]: 60
Plant response rating, Oat, Wild [4, 16]: 75
Plant response rating (scale of 0 to 100), Oat, Wild ([4]; Preemergence, 31 g ai/ha): 35
Plant response rating, Oat, Wild [4, 17]: 65
Plant response rating, Oat, Wild [4, 18]: 85
Plant response rating, Oat, Wild [4, 19]: 95
Plant response rating, Oat, Wild [4, 20]: 25
Bromegrass, Downy plant response rating [5, 14]: 0
Plant response rating, Bromegrass, Downy [5, 15]: 10
Plant response rating, Bromegrass, Downy [5, 16]: 15
Plant response rating (scale of 0 to 100), Bromegrass, Downy ([5]; Preemergence, 31 g ai/ha): 15
Plant response rating, Bromegrass, Downy [5, 17]: 35
Plant response rating, Bromegrass, Downy [5, 18]: 40
Plant response rating, Bromegrass, Downy [5, 19]: 45
Plant response rating, Bromegrass, Downy [5, 20]: 10
Wheat, Winter plant response rating [6, 14]: 0
Plant response rating, Wheat, Winter [6, 15]: 15
Plant response rating, Wheat, Winter [6, 16]: 25
Plant response rating (scale of 0 to 100), Wheat, Winter ([6]; Preemergence, 31 g ai/ha): 0
Plant response rating, Wheat, Winter [6, 17]: 0
Plant response rating, Wheat, Winter [6, 18]: 15
Plant response rating, Wheat, Winter [6, 19]: 25
Plant response rating, Wheat, Winter [6, 20]: 10
Speedwell plant response rating [7, 14]: 5
Plant response rating, Speedwell [7, 15]: 100
Plant response rating, Speedwell [7, 16]: 100
Plant response rating (scale of 0 to 100), Speedwell ([7]; Preemergence, 31 g ai/ha): 70
Plant response rating, Speedwell [7, 17]: 70
Plant response rating, Speedwell [7, 18]: 70
Plant response rating, Speedwell [7, 19]: 90
Plant response rating, Speedwell [7, 20]: 15
Wheat, Spring plant response rating [8, 14]: 0
Plant response rating, Wheat, Spring [8, 15]: 15
Plant response rating, Wheat, Spring [8, 16]: 20
Plant response rating (scale of 0 to 100), Wheat, Spring ([8]; Preemergence, 31 g ai/ha): 0
Plant response rating, Wheat, Spring [8, 17]: 15
Plant response rating, Wheat, Spring [8, 18]: 25
Plant response rating, Wheat, Spring [8, 19]: 45
Plant response rating, Wheat, Spring [8, 20]: 15
Deadnettle plant response rating [9, 14]: 25
Plant response rating, Deadnettle [9, 15]: 55
Plant response rating, Deadnettle [9, 16]: 65
Plant response rating (scale of 0 to 100), Deadnettle ([9]; Preemergence, 31 g ai/ha): 0
Plant response rating, Deadnettle [9, 17]: 0
Plant response rating, Deadnettle [9, 18]: 10
Plant response rating, Deadnettle [9, 19]: 20
Plant response rating, Deadnettle [9, 20]: 35
Oilseed Rape plant response rating [10, 14]: 0
Plant response rating, Oilseed Rape [10, 15]: 5
Plant response rating, Oilseed Rape [10, 16]: 5
Plant response rating (scale of 0 to 100), Oilseed Rape ([10]; Preemergence, 31 g ai/ha): 0
Plant response rating, Oilseed Rape [10, 17]: 0
Plant response rating, Oilseed Rape [10, 18]: 0
Plant response rating, Oilseed Rape [10, 19]: 0
Plant response rating, Oilseed Rape [10, 20]: 0
Mustard, Wild plant response rating [11, 14]: 75
Plant response rating, Mustard, Wild [11, 15]: 100
Plant response rating, Mustard, Wild [11, 16]: 100
Plant response rating (scale of 0 to 100), Mustard, Wild ([11]; Preemergence, 31 g ai/ha): 25
Plant response rating, Mustard, Wild [11, 17]: 35
Plant response rating, Mustard, Wild [11, 18]: 100
Plant response rating, Mustard, Wild [11, 19]: 100
Plant response rating, Mustard, Wild [11, 20]: 100
Ryegrass, Italian plant response rating [12, 14]: 55
Plant response rating, Ryegrass, Italian [12, 15]: 80
Plant response rating, Ryegrass, Italian [12, 16]: 90
Plant response rating (scale of 0 to 100), Ryegrass, Italian ([12]; Preemergence, 31 g ai/ha): 90
Plant response rating, Ryegrass, Italian [12, 17]: 100
Plant response rating, Ryegrass, Italian [12, 18]: 100
Plant response rating, Ryegrass, Italian [12, 19]: 100
Plant response rating, Ryegrass, Italian [12, 20]: 70
Russian Thistle plant response rating [13, 14]: 70
Plant response rating, Russian Thistle [13, 15]: 80
Plant response rating, Russian Thistle [13, 16]: 98
Plant response rating (scale of 0 to 100), Russian Thistle ([13]; Preemergence, 31 g ai/ha): 0
Plant response rating, Russian Thistle [13, 17]: 30
Plant response rating, Russian Thistle [13, 18]: 40
Plant response rating, Russian Thistle [13, 19]: 70
Plant response rating, Russian Thistle [13, 20]: 75
